Laboratory results published in US8450319B2, “Pyrrolopyridazinone compound” (Ube Industries, Ltd., priority 2006, dated 2013).

Experiments:
cynomulgus monkey = assay: Emetic action test in cynomulgus monkey; conditions: suspended in 0.5% aqueous methyl cellulose, administered nasally; emesis observed for 24 hours; 3 or 4 monkeys per dose
Method: The compound to be tested was suspended in 0.5% aqueous methyl cellulose solution (5 ml/Kg), and administered nasally.
With respect to each dose, each administered to 3 or 4 monkeys, and a dose in which emesis had not been admitted in all monkeys was made a maximum non-emesis dose.

[1] = test system: pulmonary neutrophil infiltration; assay: Pulmonary neutrophil infiltration-inhibiting activity in SD rats (LPS inhalation, MPO activity in BALF); type: in vivo; conditions: @3 mg/Kg, orally 15 minutes before LPS inhalation; BAL 4 hours after LPS; MPO activity as index; inhibiting rate relative to control
Method: Inhalation of lipopolysaccharide (hereinafter abbreviated to as LPS) was carried out by modifying the method of Moraes et al. (Br. J. Pharmacol., 123, 631 (1998)). SD rats (male, 5-weeks old, supplied by CHARLES RIVER LABORATORIES JAPAN, INC.) fasted 24 hours before administration of a compound were kept in a plastic cage, and inhalated LPS (L2880-500MG, available from SIGMA Inc.) (0.1 mg/ml) dissolved in physiological saline for 30 minutes. An ultrasonic nebulizer (NE-U12, manufactured by Omron Corporation) was used for inhalation.
A compound to be tested is dissolved (10 ml/Kg) in mixed solution of polyethylene glycol (hereinafter abbreviated to as PEG) and water, and orally administered 15 minutes before the inhalation of LPS. For the control group, 50% PEG solution was administered.
Bronchoalveolar lavage (hereinafter abbreviated to as BAL) was carried out as mentioned below 4 hours after the inhalation of LPS. […] 3.5 ml of physiological saline containing heparin (1 U/ml) was injected by using a disposable injection syringe (5 ml volume, manufactured by Terumo Corporation), and immediately recovered. This operation was repeated four times to obtain a bronchioalveolar lavage fluid (hereinafter abbreviated to as BALF). BALF was centrifugated (at 2500 rpm, 10 minutes, 4° C.), and 1 ml of 0.5% hexadecyltrimethylammonium bromide (030-02105, available from Wako Pure Chemical Industries, Ltd.) was added to the precipitated cells. Thereafter, a freeze-thaw operation (−80° C./37° C.) was repeated three times to destroy the cells.
As an index of a number of neutrophil, measurement of myeloperoxidase (hereinafter abbreviated to as MPO) activity was carried out as follows. Measurement of MPO activity was carried out by partially modifying the method of Krawisz et al. (GASTROENTEROLOGY, 1344 (1984)). To cell dissolved solution was added 50 mM phosphate buffer solution (pH 6.0) containing o-dianisidine hydrochloride (0.2 mg/ml) and 0.005% hydrogen peroxide, and change in absorbance at 450 nm was measured. As a MPO standard substance, MPO from human sputum (available from Elastin Products Company Inc.) was used. Measurement of absorbance was carried out by using a Microplate Reader (MTP-32, manufactured by Corona Electric Co., Ltd.).
An inhibiting rate of the compound to be tested relative to the control was calculated.

SMILES | Monkey Maximum non-emesis dose (cynomulgus monkey) [mg/kg] | Rat pulmonary neutrophil infiltration-inhibiting activity [1] [%] | melting point [°C]
CC#CCc1c(-c2ccc(OC(F)F)c(OC3CC3)c2)[nH]c2cn[nH]c(=O)c12 [Example 72, 3-(2-Butynyl)-2-(3-cyclopropoxy-4-difluoromethoxyphenyl)-1,5-dihydropyrrolo[2,3-d]pyridazin-4-one] | >10 | 76 | 231 to 236
COCCc1c(-c2ccc(OC(F)F)c(OC3CC3)c2)[nH]c2cn[nH]c(=O)c12 [Example 66, 2-(3-Cyclopropoxy-4-difluoromethoxyphenyl)-3-(2-methoxyethyl)-1,5-dihydropyrrolo[2,3-d]pyridazin-4-one] | >10 | 69 | 215 to 217
O=c1[nH]ncc2[nH]c(-c3ccc(OC(F)F)c(OC4CC4)c3)c(COCCF)c12 [Example 61, 2-(3-Cyclopropoxy-4-difluoromethoxyphenyl)-3-(2-fluoroethoxymethyl)-1,5-dihydropyrrolo[2,3-d]pyridazin-4-one] | – | 59 | –
O=c1[nH]ncc2[nH]c(-c3ccc(OC(F)F)c(OC4CC4)c3)c(Cc3ccccc3F)c12 [Example 22, 2-(3-Cyclopropoxy-4-difluoromethoxyphenyl)-3-(2-fluorobenzyl)-1,5-dihydropyrrolo[2,3-d]pyridazin-4-one] | – | 78 | 202 to 204
O=c1[nH]ncc2[nH]c(-c3ccc(OC(F)F)c(OC4CC4)c3)c(CC3CC3)c12 [Example 15, 2-(3-Cyclopropoxy-4-difluoromethoxyphenyl)-3-cyclopropylmethyl-1,5-dihydropyrrolo[2,3-d]pyridazin-4-one] | – | 73 | 204 to 206
